Columns and labels:
[1] = test system: angiotensin-II-treated rodents; details: cited from earlier work
[2] = test system: model of hemorrhagic stroke; details: cited from earlier work
[3] = test system: rat model of ischemic stroke; details: cited from earlier work
[4] = Compression stability of crystalline forms (XRPD, TGA, DSC); format: physicochemical; details: compression under 11×10^5 N force for about 25-28 hours; acetate
Protocol: X-Ray Powder Diffraction patterns were collected under ambient conditions (about 20° C.) on a PANalytical X'Pert PRO X-ray diffractometer (Malvern Panalytical, Malvern, UK) using Cu Kα radiation (45 kV, 40 mA), θ-θ goniometer, focusing mirror, divergence slit (½″), Soller slits at both incident and divergent beam (4 mm), a transmission foil sample stage (Kapton® polyimide, 12.7 μm thickness film), and a PIXcel detector. The software used for data collection was X'Pert Data Collector, version 2.2f, and the data was presented using X'Pert Data Viewer, version 1.2d. The data collection range was 2.994-35°2θ with a continuous scan speed of 0.202004° s^−1. Differential scanning calorimetry data was collected on a PerkinElmer Pyris 6000 DSC equipped with a 45 position sample holder. The instrument was verified for energy and temperature calibration using certified indium. In the examples below, a predefined amount of the sample (0.5-3.0 mg) was placed in a pin holed aluminum pan and heated at 20° C./min from 30° C. to 350° C., or varied as experimentation dictated. A purge of dry nitrogen at 20 mL/min was maintained over the sample. The instrument control, data acquisition and analysis were performed with Pyris Software v11.1.1 revision H. Thermo-Gravimetric Analysis data was collected on a PerkinElmer Pyris 1 TGA equipped with a 20 position auto-sampler. The instrument was calibrated using a certified weight and certified Alumel and Perkalloy for temperature. In the examples below, a predefined amount of the sample (˜5 mg) was loaded onto a pre-tared aluminum crucible and was heated at 20° C./min from ambient temperature to 400° C. unless otherwise stated. A nitrogen purge at 20 mL/min was maintained over the sample. The instrument control, data acquisition and analysis were performed with Pyris Software v11.1.1 revision H. The manufacturing process for solid dosage forms can require high compression and/or grinding, which may cause a change in crystal structure for some compounds. Compound 1 Form I and Form II were subjected to compression under 11×10^5N force for about 25-28 hours to assess the impact of compression upon the form stability of these crystalline forms.

[5] = Grinding stability of crystalline forms (XRPD, thermal); format: physicochemical
Protocol: X-Ray Powder Diffraction patterns were collected under ambient conditions (about 20° C.) on a PANalytical X'Pert PRO X-ray diffractometer (Malvern Panalytical, Malvern, UK) using Cu Kα radiation (45 kV, 40 mA), θ-θ goniometer, focusing mirror, divergence slit (½″), Soller slits at both incident and divergent beam (4 mm), a transmission foil sample stage (Kapton® polyimide, 12.7 μm thickness film), and a PIXcel detector. The software used for data collection was X'Pert Data Collector, version 2.2f, and the data was presented using X'Pert Data Viewer, version 1.2d. The data collection range was 2.994-35°2θ with a continuous scan speed of 0.202004° s^−1.
Differential scanning calorimetry data was collected on a PerkinElmer Pyris 6000 DSC equipped with a 45 position sample holder. The instrument was verified for energy and temperature calibration using certified indium. In the examples below, a predefined amount of the sample (0.5-3.0 mg) was placed in a pin holed aluminum pan and heated at 20° C./min from 30° C. to 350° C., or varied as experimentation dictated. A purge of dry nitrogen at 20 mL/min was maintained over the sample. The instrument control, data acquisition and analysis were performed with Pyris Software v11.1.1 revision H.
Thermo-Gravimetric Analysis data was collected on a PerkinElmer Pyris 1 TGA equipped with a 20 position auto-sampler. The instrument was calibrated using a certified weight and certified Alumel and Perkalloy for temperature. In the examples below, a predefined amount of the sample (˜5 mg) was loaded onto a pre-tared aluminum crucible and was heated at 20° C./min from ambient temperature to 400° C. unless otherwise stated. A nitrogen purge at 20 mL/min was maintained over the sample. The instrument control, data acquisition and analysis were performed with Pyris Software v11.1.1 revision H.
Samples of both Form I and Form II (about 100 mg each) were subjected to grinding operations to assess the impact on solid form and observed microscopy. It was of interest to note whether amorphous content was generated, and to review the impact upon water content for the batches, especially with regards to Form II hydrate.

[6] = Aqueous solubility of solid forms; format: physicochemical; details: for aqueous solubility: at 25° C., acetate
[7] = test system: patients with hereditary angioedema; details: cited from earlier work
[8] = test system: animal model of ischemic stroke; details: cited from earlier work
[9] = test system: mouse model of middle cerebral artery occlusion; details: cited from earlier work

## CC(=O)O.N=C(N)c1ccc(CNC(=O)c2cnn(Cc3ccccc3)c2)cc1 [Compound 1, 1-benzyl-N-(4-carbamimidoylbenzyl)-1H-pyrazole-4-carboxamide acetate salt]
[1]
  retinal vascular permeability: reduce retinal vascular permeability
[2]
  expansion of intracerebral hemorrhage: reduce
[3]
  infarction volume and cerebrovascular edema: reduce infarction volume and cerebrovascular edema

## CC(=O)O.N=C(N)c1ccc(CNC(=O)c2cnn(Cc3ccccc3)c2)cc1 [Form I, 1-benzyl-N-(4-carbamimidoylbenzyl)-1H-pyrazole-4-carboxamide acetate]
[4]
  DSC thermograph change following compression: reduction in the intensity and temperature of the melt endotherm
  TGA thermograph change following compression: no change in the TGA thermograph
  XRPD pattern change following compression: subtle reduction in diffraction resolution
[5]; compression and grinding, summary
  stability under manual stress: superior stability to hydrated Form II
[6]; water, 25 °C
  solubility: ~8300 µg/mL

## CC(=O)O.N=C(N)c1ccc(CNC(=O)c2cnn(Cc3ccccc3)c2)cc1 [Form II, 1-benzyl-N-(4-carbamimidoylbenzyl)-1H-pyrazole-4-carboxamide acetate]
[4]
  DSC thermograph change following compression: reduction in the intensity, but increase of the temperature of the main melt endotherm
  TGA thermograph change following compression: slight increase in the water content
  XRPD pattern change following compression: significant change in the diffraction pattern to a pattern of reduced crystallinity
[5]; about 100 mg ground
  change of solid form post-grinding (thermal, XRPD): minor alteration in reflection resolution and intensity
[5]; after grinding
  water content post-grinding: 3.93 wt %
[5]; before grinding
  water content at point of production: 2.76 wt %
[6]
  aqueous solubility: about 5.5 mg/mL

## CC(=O)O.N=C(N)c1ccc(CNC(=O)c2cnn(Cc3ccccc3)c2)cc1 [Form III, 1-benzyl-N-(4-carbamimidoylbenzyl)-1H-pyrazole-4-carboxamide acetate]
[6]
  aqueous solubility: about 7.2 mg/mL

## CC(=O)O.N=C(N)c1ccc(CNC(=O)c2cnn(Cc3ccccc3)c2)cc1 [Form V, 1-benzyl-N-(4-carbamimidoylbenzyl)-1H-pyrazole-4-carboxamide acetate]
[6]
  aqueous solubility: about 7.1 mg/mL

## NC(N)=NCCC[C@@H](N)C(=O)N[C@@H](CCCN=C(N)N)C(=O)N1CCC[C@H]1C(=O)N1C[C@H](O)C[C@H]1C(=O)NCC(=O)N[C@@H](Cc1cccs1)C(=O)N[C@@H](CO)C(=O)N1Cc2ccccc2C[C@@H]1C(=O)N1[C@H](C(=O)N[C@@H](CCCN=C(N)N)C(=O)O)C[C@@H]2CCCC[C@@H]21 [icatibant]
[7]
  effect on hereditary angioedema: effective

## Ecallantide
[7]
  effect on hereditary angioedema: alleviates edema
[8]
  brain edema, infarct volume and neurological deficits: reduced brain edema, infarct volume and neurological deficits

## Hoe-140 [reference compound]
[1]
  retinal vascular permeability: reduce retinal vascular permeability

B1: C1-INH: the major endogenous inhibitor of PK (protein, UniProt P05155 23-500, looked up)
Plasma protease C1 inhibitor: NPNATSSSSQDPESLQDRGEGKVATTVISKMLFVEPILEVSSLPTTNSTTNSATKITANTTDEPTTQPTTEPTTQPTIQPTQPTTQLPTDSPTQPTTGSFCPGPVTLCSDLESHSTEAVLGDALVDFSLKLYHAFSAMKKVETNMAFSPFSIASLLTQVLLGAGENTKTNLESILSYPKDFTCVHQALKGFTTKGVTSVSQIFHSPDLAIRDTFVNASRTLYSSSPRVLSNNSDANLELINTWVAKNTNNKISRLLDSLPSDTRLVLLNAIYLSAKWKTTFDPKKTRMEPFHFKNSVIKVPMMNSKKYPVAHFIDQTLKAKVGQLQLSHNLSLVILVPQNLKHRLEDMEQALSPSVFKAIMEKLEMSKFQPTLLTLPRIKVTTSQDMLSIMEKLEFFDFSYDLNLCGLTEDPDLQVSAMQHQTVLELTETGVEAAAASAISVARTLLVFEVQQPFLFVLWDQQHKFPVFMGRVYDPRA
[9]
  infarct size: reduced infarct size
